According to US20150099800A1, “NOVEL LIPASE INHIBITORS, REPORTER SUBSTRATES AND USES THEREOF” (Northeastern University, priority 2012, published 2015):
Like-named read-outs stand apart in the source and are kept apart here.

Key:
hDAGLα = target: T1, hDAGLα (Homo sapiens, UniProt Q9Y4D2)
T1 sequence (Q9Y4D2 1-1042): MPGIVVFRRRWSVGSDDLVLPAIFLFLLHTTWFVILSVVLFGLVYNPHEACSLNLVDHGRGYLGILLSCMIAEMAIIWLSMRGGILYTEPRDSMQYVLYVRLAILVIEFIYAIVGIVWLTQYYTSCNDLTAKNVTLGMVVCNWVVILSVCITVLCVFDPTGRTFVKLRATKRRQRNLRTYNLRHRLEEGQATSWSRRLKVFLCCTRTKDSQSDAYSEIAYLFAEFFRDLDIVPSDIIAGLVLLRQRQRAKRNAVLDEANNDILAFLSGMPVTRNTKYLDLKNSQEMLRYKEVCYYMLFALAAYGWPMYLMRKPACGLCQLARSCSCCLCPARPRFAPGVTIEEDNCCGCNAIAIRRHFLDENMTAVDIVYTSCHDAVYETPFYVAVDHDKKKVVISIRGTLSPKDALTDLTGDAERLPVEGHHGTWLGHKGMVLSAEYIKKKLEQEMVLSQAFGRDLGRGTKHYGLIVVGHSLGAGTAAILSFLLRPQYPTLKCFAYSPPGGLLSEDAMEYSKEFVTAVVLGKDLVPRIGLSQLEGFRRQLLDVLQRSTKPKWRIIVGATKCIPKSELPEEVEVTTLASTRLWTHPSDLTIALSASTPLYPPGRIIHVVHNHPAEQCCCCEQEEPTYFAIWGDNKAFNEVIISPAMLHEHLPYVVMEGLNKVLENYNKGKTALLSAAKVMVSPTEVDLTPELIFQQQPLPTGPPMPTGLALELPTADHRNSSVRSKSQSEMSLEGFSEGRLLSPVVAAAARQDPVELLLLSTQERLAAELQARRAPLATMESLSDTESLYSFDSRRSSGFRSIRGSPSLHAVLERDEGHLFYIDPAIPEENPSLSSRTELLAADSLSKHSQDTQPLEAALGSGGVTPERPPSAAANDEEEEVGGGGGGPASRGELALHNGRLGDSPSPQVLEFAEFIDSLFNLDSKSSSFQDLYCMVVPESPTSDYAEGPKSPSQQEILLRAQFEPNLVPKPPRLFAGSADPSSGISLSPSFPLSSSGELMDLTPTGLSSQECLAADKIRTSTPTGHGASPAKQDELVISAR

mDAGLα = target: T2, mDAGLα (Mus musculus, UniProt Q6WQJ1); test: Radio-TLC assay with [14C]SAG substrate, mDAGLα; conditions: for potency for mDAGLα relative to analogs of (S)-α-amino acids: 10 nM to 10 μM
T2 sequence (Q6WQJ1 1-1044): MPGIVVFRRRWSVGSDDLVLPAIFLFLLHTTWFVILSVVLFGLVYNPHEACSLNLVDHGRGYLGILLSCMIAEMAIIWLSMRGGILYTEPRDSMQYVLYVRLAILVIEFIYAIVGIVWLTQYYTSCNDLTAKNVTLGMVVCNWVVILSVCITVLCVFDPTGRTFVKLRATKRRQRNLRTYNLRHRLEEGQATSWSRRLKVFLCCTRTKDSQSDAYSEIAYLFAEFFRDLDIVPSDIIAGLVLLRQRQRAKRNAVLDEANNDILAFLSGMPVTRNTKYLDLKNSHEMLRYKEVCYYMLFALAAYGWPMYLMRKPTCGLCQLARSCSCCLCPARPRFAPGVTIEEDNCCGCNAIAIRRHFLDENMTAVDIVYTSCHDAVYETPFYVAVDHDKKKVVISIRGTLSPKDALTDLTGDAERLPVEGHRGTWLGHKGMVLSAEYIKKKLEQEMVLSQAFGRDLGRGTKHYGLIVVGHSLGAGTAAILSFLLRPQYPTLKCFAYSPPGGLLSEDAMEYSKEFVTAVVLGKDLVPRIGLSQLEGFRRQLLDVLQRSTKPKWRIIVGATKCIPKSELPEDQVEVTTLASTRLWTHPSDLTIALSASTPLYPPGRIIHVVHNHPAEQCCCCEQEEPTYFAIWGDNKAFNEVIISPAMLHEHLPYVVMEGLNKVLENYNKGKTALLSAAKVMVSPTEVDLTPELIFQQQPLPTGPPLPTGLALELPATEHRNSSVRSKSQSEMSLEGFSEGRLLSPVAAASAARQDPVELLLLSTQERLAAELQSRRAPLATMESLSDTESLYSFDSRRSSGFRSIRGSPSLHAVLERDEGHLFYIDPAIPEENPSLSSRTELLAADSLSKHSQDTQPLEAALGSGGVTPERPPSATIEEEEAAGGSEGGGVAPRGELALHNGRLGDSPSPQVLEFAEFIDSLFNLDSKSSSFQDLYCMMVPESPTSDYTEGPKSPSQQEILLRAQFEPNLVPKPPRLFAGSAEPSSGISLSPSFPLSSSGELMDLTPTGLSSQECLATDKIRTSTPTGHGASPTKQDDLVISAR

MAGL = target: T3, MAGL (Homo sapiens, UniProt Q99685); test: hMAGL coumarin substrate fluorescence assay; format: biochemical; parameters: The N-terminal his-tagged full length human monoacylglycerol lipase used; His (N); made in house; host or cells: E. coli
T3 sequence (Q99685 1-303): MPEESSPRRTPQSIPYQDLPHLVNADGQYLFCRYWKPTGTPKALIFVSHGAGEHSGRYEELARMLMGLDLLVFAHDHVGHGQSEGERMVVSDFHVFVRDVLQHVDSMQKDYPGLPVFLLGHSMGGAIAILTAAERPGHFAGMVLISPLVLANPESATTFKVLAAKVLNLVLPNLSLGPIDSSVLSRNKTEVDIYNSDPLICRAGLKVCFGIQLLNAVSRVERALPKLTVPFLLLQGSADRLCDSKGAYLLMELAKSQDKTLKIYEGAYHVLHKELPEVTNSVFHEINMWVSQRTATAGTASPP

## CCCCCCCCCCCC(CC1OC(=O)C1CCCCCC)OC(=O)C(NC=O)C(C)CC (centres unmarked) [Compound 6]
hDAGLα; 10 μM
  hDAGLα inhibition at 10 μM (0.05% Triton X-100) (%), FRET: 98%
hDAGLα; 10 μM, detergent free
  hDAGLα inhibition at 10 μM detergent free (%), FRET: 90%
mDAGLα
  mDAGLα inhibition at 10 nM (%): 33%
  potency for mDAGLα relative to analogs of (S)-α-amino acids: clearly less potent
  mDAGLα inhibition at 100 nM (%): 29%
  mDAGLα inhibition at 1000 nM (%): 69%
mDAGLα; 10000 nM
  mDAGLα inhibition at 10000 nM (%): 85%
MAGL; 10 μM
  hMAGL inhibition at 10 μM (%): 39%

## CCCCCCCCCCC[C@@H](C[C@@H]1OC(=O)[C@H]1CCCCCC)OC(=O)[C@H](NC=O)[C@@H](C)CC [Compound 7]
hDAGLα; 10 μM
  hDAGLα inhibition at 10 μM (0.05% Triton X-100) (%), FRET: 98%
hDAGLα; 10 μM, detergent free
  hDAGLα inhibition at 10 μM detergent free (%), FRET: 90%
mDAGLα
  mDAGLα inhibition at 10 nM (%): 19%
  potency for mDAGLα relative to analogs of (S)-α-amino acids: clearly less potent
  mDAGLα inhibition at 100 nM (%): 51%
  mDAGLα inhibition at 1000 nM (%): 75%
mDAGLα; 10000 nM
  mDAGLα inhibition at 10000 nM (%): 90%
MAGL; 10 μM
  hMAGL inhibition at 10 μM (%): 42%

## CCCCCCCCCCC[C@@H](C[C@@H]1OC(=O)[C@H]1CCCCCC)OC(=O)[C@H](CC(C)C)NC=O [Compound 3, tetrahydrolipstatin]
mDAGLα; read-out: mDAGLα inhibition at 10 nM (%)
  inhibition at 0.01 µM: 55%
mDAGLα; read-out: mDAGLα inhibition at 100 nM (%)
  inhibition at 0.1 µM: 72%
MAGL; read-out: hMAGL inhibition at 10 μM (%)
  inhibition at 10 µM: 47%

## O=C(Oc1ccc([N+](=O)[O-])cc1)N1CCC(C(O)(c2ccc3c(c2)OCO3)c2ccc3c(c2)OCO3)CC1 [JZL184]
hDAGLα
  hDAGLα inhibition at 10 μM detergent free (%), FRET: 59, 44° %
  hDAGLα inhibition at 10 μM detergent free (%), FRET, marker °: 59, 44° %
mDAGLα
  mDAGLα inhibition at 10000 nM (%): 3%
MAGL
  hMAGL inhibition at 10 μM (%): 100^F %
